Results: ChEMBL document CHEMBL1132504, “Nucleosides and nucleotides. 183. Synthesis of 4'alpha-branched thymidines as a new type of antiviral agent” (Bioorg Med Chem Lett, 1999)

Tests used:
[1] = test system: Human immunodeficiency virus 1; assay: Antiviral activity against HIV-1 (human immunodeficiency virus type 1); assay type: functional, organism-based
[2] = Cytotoxicity against HIV-1 (human immunodeficiency virus type 1); assay type: functional; conditions: Human immunodeficiency virus 1
[3] = Cytotoxicity against HSV-1 (herpes simplex virus); assay type: functional; conditions: Human alphaherpesvirus 1
Human alphaherpesvirus 1 = assay: Antiviral activity against HSV-1 (herpes simplex virus); assay type: functional, organism-based

| SMILES | EC50 [1] [µM] | CC50 [2] [µM] | CC50 [3] [µM] | EC50 (Human alphaherpesvirus 1) [µM] |
| --- | --- | --- | --- | --- |
| C#C[C@]1(CO)O[C@@H](n2cc(C)c(=O)[nH]c2=O)C[C@@H]1O | 0.83 | > 100 | > 100 | 6.8 |
| Cc1cn([C@H]2C[C@@H]3OCC[C@]3(CO)O2)c(=O)[nH]c1=O | > 100 | > 100 | > 100 | > 100 |
| Cc1cn([C@H]2C[C@H](N=[N+]=[N-])[C@@H](CO)O2)c(=O)[nH]c1=O [ZIDOVUDINE] | 0.0017 | 16.5 |  |  |
| Nc1nc2c(ncn2COCCO)c(=O)[nH]1 [ACYCLOVIR] |  |  | > 100 |  |
| C=C[C@]1(CO)O[C@@H](n2cc(C)c(=O)[nH]c2=O)C[C@@H]1O | 6.1 | > 100 | > 100 | 1.9 |
| Cc1cn([C@H]2C[C@H](O)[C@](CO)(CCO)O2)c(=O)[nH]c1=O | > 4.7 | 4.7 | > 100 | > 100 |
| CC[C@]1(CO)O[C@@H](n2cc(C)c(=O)[nH]c2=O)C[C@@H]1O | 16.1 | > 100 | > 100 | 7.4 |
